Measurements published in publication PMC12163635, “Synthetic Retinoids for the Modulation of Genomic and Nongenomic Processes in Neurodegenerative Diseases” (ACS Omega, 2025).

Tests used:
[1] = test system: Sil-15 cells containing a RARE driving a lacZ reporter; assay: X-Gal-based RA reporter assay (genomic response); type: cell-based; design: genomic response Emax (±95% CI): unit not given here; conditions: for genomic response Emax (±95% CI) / EC50: Sil-15 reporter cells; for genomic response Emax (±95% CI): absorbance at 650 nm; for genomic E max compared with ATRA / genomic EC50 compared with ATRA: nonoverlapping 95% CI; for EC50: read-out: genomic response EC50 (±95% CI), overnight, 10^–6 to 10^–14 M
Excerpt: Following chemical design and synthesis, the synthetic retinoid library was screened for genomic and nongenomic biological activities and compared to the response of the endogenous retinoid, ATRA. In these assays, the EC50 value represented the concentration of retinoid that gave half-maximal response (potency), while the E max value represented the maximum response achievable from the retinoid (efficacy).
The transcriptional genomic activity of the retinoids was quantified using Sil-15 cells containing a RARE driving a lacZ reporter. […] Twenty-two of the synthetic retinoids were effective in inducing genomic activity. […] In addition, the retinoids varied in their efficacies.
The Sil-15 cell line was used in the X-gal RA reporter assay described below. The cells were grown in Dulbecco’s modified Eagle’s medium (DMEM) containing 10% fetal bovine serum (FCS) (Invitrogen/Gibco), 0.6% penicillin-streptomycin (Gibco) and 0.8 mg/mL G418 sulfate (Sigma) for selection. They were maintained in a humidified atmosphere containing 5% CO2 at 37 °C. The medium was changed three times a week and the cells were passaged at 70% confluence using 0.05% trypsin-EDTA.
Sil-15 cells are F9 teratocarcinoma cells stably transfected with a plasmid containing the LacZ gene under the control of a DR5-type RA response element (RARE). The reporter cell line was used to detect the transcriptional genomic activity of ATRA and other retinoids by colorimetrically quantifying the insoluble blue product generated by β-galactosidase from X-gal during the assay. The assay was performed by plating 100,000 cells per well in the 0.1% gelatin-coated 96-well plates and leaving them to attach overnight. The ATRA/retinoids dilutions ranging from 10^–6 to 10^–14 M were incubated on the reporter cells overnight at 37 °C, in 5% CO2. A standard curve of ATRA was included in each experiment to ensure the reproducibility of the results between assays performed on different days. All the assays for ATRA as well as the retinoids were quantified in triplicate. Serial dilutions of retinoids were prepared from a stock solution under red/orange light. The stock solutions prepared in DMSO for each retinoid varied depending on the solubility of each compound. Each stock was stored at −20 °C and protected from light. The next day, Sil-15 cells were washed with PBS, fixed with 1% glutaraldehyde and 1 mM MgCl2 solution for 15 min, and developed in X-gal developing solution (0.2% X-Gal, 1 mM MgCl2, 3.3 mM potassium ferricyanide and 3.3 mM potassium ferrocyanide in PBS). The plates were read on an E max microplate reader (Molecular Devices) at 650 nm.
(§1) All data are presented as mean ± SEM of three independent experiments with biological triplicates. Statistical analyses were performed in Microsoft Office Excel 2019 or GraphPad Prism 7.0c version (Prism, GraphPad Software, San Diego, CA). Neurite outgrowth data were analyzed by one-way ANOVA with Newman-Keuls multiple comparison test as appropriate; P value <0.05 was considered statistically significant. *P < 0.05, **P < 0.01. Data for X-Gal and ERK1/2 phosphorylation were analyzed using sigmoidal dose–response analysis of log (agonist) versus response curve (stimulation).

[2] = test system: ERK1/2 phosphorylation in SH-SY5Y cells; assay: ERK1/2 phosphorylation (nongenomic response), AlphaScreen SureFire; type: cell-based, human; design: nongenomic response Emax (±95% CI): unit not given here; conditions: for EC50: Homo sapiens, read-out: nongenomic response EC50 (±95% CI); for nongenomic E max compared with ATRA: nonoverlapping 95% CI
Method: After screening the retinoids for genomic responses, they were tested for their nongenomic ability to rapidly phosphorylate ERK1/2 in the SH-SY5Y cell line. ATRA is known as a potent activator of ERK1/2 − and was used as the standard for comparison. […] The efficacies of the remaining seven retinoids were similar to ATRA.
SH-SY5Y cell line as used in ERK phosphorylation and neurite outgrowth assays described below. The cells were grown in DMEM containing 10% FCS at 37 °C with 5% CO2. The medium was changed three times a week and the cells were passaged at 70% confluence using 0.05% trypsin-EDTA.
To quantify ERK1/2 phosphorylation, SH-SY5Y cells (100,000 cells/well) were plated onto 96-well plates and serum-starved for 24 h in DMEM. Cells were assayed in serum-free DMEM and stimulated for 60 min at 37 °C in a humidified atmosphere. Retinoids were tested at concentrations ranging from 10 to 4 to 10–11 M and at a final concentration of 0.1% DMSO. At the end of the assay, the medium was removed, and cells were lysed with lysis buffer supplied in the AlphaScreen SureFire ERK1/2 kit (PerkinElmer). The assay was performed in 384-well white Proxiplates according to the manufacturer’s instructions and using the beads supplied in the protein A general IgG detection kit (PerkinElmer). Briefly, 4 μL samples were incubated with 7 μL of the freshly prepared mixture containing donor and acceptor beads. Plates were incubated at room temperature and read with the Envision system (PerkinElmer Life Sciences) using AlphaScreen settings.
as §1

Structure (SMILES)	genomic response Emax (±95% CI) [1]	genomic E max compared with ATRA [1]	EC50 ([2]; SH-SY5Y cells, 1 h)	nongenomic response Emax (±95% CI) ([2]; SH-SY5Y cells, 1 h)	nongenomic E max compared with ATRA [2]	EC50 [1]	induction of ERK1/2 phosphorylation (nongenomic activity) ([2]; SH-SY5Y cells, 1 h)	genomic EC50 compared with ATRA [1]	nongenomic response EC50 (±95% CI) ([2]; SH-SY5Y cells, 1 h)
CC1(C)CCC(C)(C)c2cc(C#Cc3ccc(C(=O)O)c(F)c3)ccc21 [Compound 13, 2-Fluoro-4-[2-(5,5,8,8-tetramethyl-5,6,7,8-tetrahydronaphthalen-2-yl)ethynyl]benzoic Acid]	190 (±8.2)	significantly higher E max than ATRA	2.44 nM	43.4 (±1.81)	E max values significantly lower than ATRA				
CC1(C)CCC(C)(C)c2cc(C#Cc3ccc(C(=O)O)cc3F)ccc21 [Compound 14, 3-Fluoro-4-[2-(5,5,8,8-tetramethyl-5,6,7,8-tetrahydronaphthalen-2-yl)ethynyl]benzoic Acid]	149 (±14.9)	significantly lower E max than ATRA	27.4 nM	50.7 (±2.51)		0.0581 nM			
CC1(C)CCC(C)(C)c2cc(C#Cc3cc(F)c(C(=O)O)c(F)c3)ccc21 [Compound 15, 2,6-Difluoro-4-[2-(5,5,8,8-tetramethyl-5,6,7,8-tetrahydronaphthalen-2-yl)ethynyl]benzoic Acid]	185 (±4.9)	significantly higher E max than ATRA	125 nM	76.2 (±5.47)	E max values significantly higher than ATRA		showed activity toward the nongenomic pathway		
CC1(C)CCC(C)(C)c2cc(C#Cc3ccc(C(=O)O)cc3Cl)ccc21 [Compound 16, 3-Chloro-4-[2-(5,5,8,8-tetramethyl-5,6,7,8-tetrahydronaphthalen-2-yl)ethynyl]benzoic Acid]	97.2 (±7.9)	significantly lower E max than ATRA	90.8 nM	36.9 (±2.77)	E max values significantly lower than ATRA	13.6 nM		significantly higher EC50 values than ATRA	
Cc1cc2c(cc1C#Cc1ccc(C(=O)O)c(F)c1)C(C)(C)CCC2(C)C [Compound 17, 2-Fluoro-4-[2-(3,5,5,8,8-pentamethyl-5,6,7,8-tetrahydronaphthalen-2-yl)ethynyl]benzoic Acid]	170 (±9.35)		5.73 nM	44.1 (±2.69)		0.134 nM		significantly lower EC50 than ATRA	
Cc1cc2c(cc1C#Cc1ccc(C(=O)O)cc1F)C(C)(C)CCC2(C)C [Compound 18, 3-Fluoro-4-[2-(3,5,5,8,8-pentamethyl-5,6,7,8-tetrahydronaphthalen-2-yl)ethynyl]benzoic Acid]	140 (±12.1)	significantly lower E max than ATRA	13.1 nM	40.1 (±1.86)	E max values significantly lower than ATRA	1.38 nM			
Cc1cc2c(cc1C#Cc1cc(F)c(C(=O)O)c(F)c1)C(C)(C)CCC2(C)C [Compound 19, 2,6-Difluoro-4-[2-(3,5,5,8,8-pentamethyl-5,6,7,8-tetrahydronaphthalen-2-yl)ethynyl]benzoic Acid]			144 nM	77.6 (±2.92)	E max values significantly higher than ATRA	0.27 nM		significantly lower EC50 than ATRA	
COc1cc2c(cc1C#Cc1cc(F)c(C(=O)O)c(F)c1)C(C)(C)CCC2(C)C [Compound 22, 2,6-Difluoro-4-[2-(3-methoxy-5,5,8,8-tetramethyl-5,6,7,8-tetrahydronaphthalen-2-yl)ethynyl]benzoic Acid]	155 (±10.6)	significantly lower E max than ATRA	3.37 nM	71.2 (±3.9)		0.146 nM			
CC1(C)CCC(C)(C)c2cc(C#Cc3ccc(C(=O)O)cn3)ccc21 [Compound 23, 6-[2-(5,5,8,8-Tetramethyl-5,6,7,8-tetrahydronaphthalen-2-yl)ethynyl]pyridine-3-carboxylic Acid]	210 (±8.45)	significantly higher E max than ATRA	23.9 nM	85.7 (±9.23)			showed activity toward the nongenomic pathway		
CC1(C)CCC(C)(C)c2cc(C#Cc3ccc(C(=O)O)nc3)ccc21 [Compound 24, 5-[2-(5,5,8,8-Tetramethyl-5,6,7,8-tetrahydronaphthalen-2-yl)ethynyl]pyridine-2-carboxylic Acid]	207 (±19.5)	significantly higher E max than ATRA	13.6 nM	59.7 (±3.34)		0.146 nM	showed activity toward the nongenomic pathway		
CC1(C)CCC(C)(C)c2cc(C#Cc3cnc(C(=O)O)cn3)ccc21 [Compound 25, 5-[2-(5,5,8,8-Tetramethyl-5,6,7,8-tetrahydronaphthalen-2-yl)ethynyl]pyrazine-2-carboxylic Acid]	174 (±8.25)		20.7 nM	27.9 (±1.66)	E max values significantly lower than ATRA	3.98 nM		significantly higher EC50 values than ATRA	
Cc1cc2c(cc1C#Cc1ccc(C(=O)O)cn1)C(C)(C)CCC2(C)C [Compound 26, 6-[2-(3,5,5,8,8-Pentamethyl-5,6,7,8-tetrahydronaphthalen-2-yl)ethynyl]pyridine-3-carboxylic Acid]	177 (±6.65)		459 nM	56.4 (±6.36)	E max values significantly higher than ATRA	0.427 nM		significantly lower EC50 than ATRA	
COc1cc2c(cc1C#Cc1ccc(C(=O)O)cn1)C(C)(C)CCC2(C)C [Compound 27, 6-[2-(3-Methoxy-5,5,8,8-tetramethyl-5,6,7,8-tetrahydronaphthalen-2-yl)ethynyl]pyridine-3-carboxylic Acid]	176 (±8.55)			no response		3.16 nM	lacked nongenomic activity	significantly higher EC50 values than ATRA	no response
Cc1cc2c(cc1C#Cc1ncc(C(=O)O)cn1)C(C)(C)CCC2(C)C [Compound 28, 2-[2-(3,5,5,8,8-Pentamethyl-5,6,7,8-tetrahydronaphthalen-2-yl)ethynyl]pyrimidine-5-carboxylic Acid]	192 (±12.7)		5.42 nM	44.7 (±3.15)		0.826 nM			
